Measurements reported in patent US10144742B2 (Millennium Pharmaceuticals, Inc., priority 2014, dated 2018).
Like-named read-outs stand apart in the source and are kept apart here.

Tests used:
[1] = molecular target: hNAMPT protein (Homo sapiens (Human), UniProt P43490); assay: NAMPT enzyme assay (TR-FRET/HTRF, BodiPY ligand, anti 6His-Tb); assay type: binding; conditions: for IC50: read-out: IC50; for inhibition at 1 µM: read-out: Percent Inhibition
Procedure, shortened: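 TR-FRET binding assay in which His-tagged human NAMPT with anti-6His-Tb is displaced by compound from a BodiPY ligand, incubated 1 h at rt in the dark. Excitation was at 320 nm, with the 520/486 nm emission ratio read. IC50 was fitted from inhibition relative to DMSO controls.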

[2] = tested on: PC3 cells; assay: PC3 growth inhibition (Cell-titer glo, 72 hours); assay type: cell-based; conditions: Homo sapiens, PC-3, PC3 cells, 72 hours, Cell-titer glo, read-out: Percent Inhibition (PC3 growth inhibition); for inhibition at 1 µM: compound concentration 1 μM; for inhibition at 1.667 µM: compound concentration 1.667 μM
Procedure, shortened: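 PC3 cells in RPMI1640 seeded overnight at 37 °C, 5% CO2, then exposed to compound diluted in AIM serum-free medium for 72 h. Viability by CellTiter-Glo luminescence vs DMSO controls; single-concentration % remaining viability (1 μM or 1.667 μM), or GI50/LD50 from curves.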

[3] = NAMPT inhibition at compound concentration 1 μM
[4] = NAMPT inhibition, IC50 range class

hNAMPT protein, sequence (P43490 whole entry): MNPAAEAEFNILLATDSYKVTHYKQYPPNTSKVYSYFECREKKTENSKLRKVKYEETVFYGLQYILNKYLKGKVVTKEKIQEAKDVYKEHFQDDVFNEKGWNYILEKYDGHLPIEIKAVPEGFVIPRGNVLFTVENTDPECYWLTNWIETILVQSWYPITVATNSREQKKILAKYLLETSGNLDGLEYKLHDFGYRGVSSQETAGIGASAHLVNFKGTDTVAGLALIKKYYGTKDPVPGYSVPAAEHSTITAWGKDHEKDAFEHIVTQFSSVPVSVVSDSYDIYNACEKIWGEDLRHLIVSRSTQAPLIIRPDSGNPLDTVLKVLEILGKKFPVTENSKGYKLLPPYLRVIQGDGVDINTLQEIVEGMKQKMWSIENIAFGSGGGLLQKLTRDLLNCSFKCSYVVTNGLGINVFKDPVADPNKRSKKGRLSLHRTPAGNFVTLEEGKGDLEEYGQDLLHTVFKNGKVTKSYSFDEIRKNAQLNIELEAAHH

| Structure (SMILES) | IC50 ([1]; NAMPT IC50 range class) [nM] | inhibition at 1 µM ([1]; compound concentration 1 μM) [%] | inhibition at 1 µM [2] [%] | inhibition at 1 µM [1, 3] [%] | IC50 [1, 4] [nM] | inhibition at 1.667 µM [2] [%] | inhibition at 1.852 µM ([2]; compound concentration 1.852 μM) [%] |
| --- | --- | --- | --- | --- | --- | --- | --- |
| O=C(NCCCn1ccnc1)c1ccc2nc(N3CCC4(COC4)C3)c(-c3ccccc3)nc2c1 [Compound I-243, N-[3-(1H-imidazol-1-yl)propyl]-2-(2-oxa-6-azaspiro[3.4]oct-6-yl)-3-phenylquinoxaline-6-carboxamide] | 500 to 1000 | 62 | -6 | – | – | – | – |
| CN(C)CCOc1nc2ccc(C(=O)NCCCc3ncc[nH]3)cc2nc1-c1ccc(F)cc1 [Compound I-509, 2-[2-(dimethylamino)ethoxy]-3-(4-fluorophenyl)-N-[3-(1H-imidazol-2-yl)propyl]quinoxaline-6-carboxamide] | – | – | – | 94 | < 100 | 3 | – |
| COc1nccc(-c2nc3cc(C(=O)NCCCc4ncc[nH]4)ccc3nc2-c2ccc(F)cc2)c1F [Compound I-391, 3-(3-fluoro-2-methoxypyridin-4-yl)-2-(4-fluorophenyl)-N-[3-(1H-imidazol-2-yl)propyl]quinoxaline-6-carboxamide] | 100 to 500 | 83 | – | – | – | 3 | – |
| CS(=O)(=O)Nc1cccc(-c2nc3cc(C(=O)NCCCn4ccnc4)ccc3nc2-c2ccccc2)c1 [Compound I-48, N-[3-(1H-imidazol-1-yl)propyl]-3-{3-[(methylsulfonyl)amino]phenyl}-2-phenylquinoxaline-6-carboxamide] | 100 to 500 | 87 | 1 | – | – | – | – |
| O=C(NCCCc1ncc[nH]1)c1ccc2nc(N3CCC(O)CC3)c(-c3ccc(F)cc3)nc2c1 [Compound I-213, 3-(4-fluorophenyl)-2-(4-hydroxypiperidin-1-yl)-N-[3-(1H-imidazol-2-yl)propyl]quinoxaline-6-carboxamide] | < 100 | 99 | – | – | – | 2 | – |
| O=C(NCCCc1cn[nH]c1)c1ccc2nc(-c3ccc(F)cc3)c(-c3ccc(F)cc3)nc2c1 [Compound I-508, 2,3-bis(4-fluorophenyl)-N-[3-(1H-pyrazol-4-yl)propyl]quinoxaline-6-carboxamide] | – | – | – | 73 | 100 to 500 | 3 | – |
| O=C(NCCCc1ncc[nH]1)c1ccc2nc(O[C@@H]3CCOC3)c(-c3ccc(F)cc3)nc2c1 [Compound I-372, 3-(4-fluorophenyl)-N-[3-(1H-imidazol-2-yl)propyl]-2-[(3R)-tetrahydrofuran-3-yloxy]quinoxaline-6-carboxamide] | < 100 | > 99 | – | – | – | 2 | – |
| O=C(NCc1cn2cccnc2n1)c1ccc2nc(N3CCC(O)CC3)c(-c3ccc(F)cc3)nc2c1 [Compound I-282, 3-(4-Fluorophenyl)-2-(4-hydroxypiperidin-1-yl)-N-(imidazo[1,2-a]pyrimidin-2-ylmethyl)quinoxaline-6-carboxamide] | < 100 | 91 | – | – | – | 96 | – |
| COc1cc(-c2nc3cc(C(=O)NCCCc4ncc[nH]4)ccc3nc2-c2ccc(F)cc2)ccc1F [Compound I-488, 3-(4-fluoro-3-methoxyphenyl)-2-(4-fluorophenyl)-N-[3-(1H-imidazol-2-yl)propyl]quinoxaline-6-carboxamide] | – | – | – | 98 | < 100 | 2 | – |
| CCOc1ccc(Cl)c(-c2nc3cc(C(=O)NCCCc4ncc[nH]4)ccc3nc2-c2ccc(F)cc2)c1 [Compound I-437, 3-(2-chloro-5-ethoxyphenyl)-2-(4-fluorophenyl)-N-[3-(1H-imidazol-2-yl)propyl]quinoxaline-6-carboxamide] | – | – | – | 71 | 100 to 500 | 3 | – |
| O=C(NCCCn1ccnc1)c1ccc2nc(C3=CCCC3)c(-c3ccccc3)nc2c1 [Compound I-230, 2-(cyclopent-1-en-1-yl)-N-[3-(1H-imidazol-1-yl)propyl]-3-phenylquinoxaline-6-carboxamide] | 500 to 1000 | 62 | -7 | – | – | – | – |
| O=C(NCCCn1ccnc1)c1ccc2nc(-c3ccco3)c(-c3ccco3)nc2c1 [Compound I-107, 2,3-di(2-furyl)-N-[3-(1H-imidazol-1-yl)propyl]quinoxaline-6-carboxamide] | 1000 to 2000 | 47 | 102 | – | – | – | – |
| CCOc1cc(-c2nc3cc(C(=O)NCCCc4ncc[nH]4)ccc3nc2-c2ccc(F)cc2)ccc1F [Compound I-355, 3-(3-ethoxy-4-fluorophenyl)-2-(4-fluorophenyl)-N-[3-(1H-imidazol-2-yl)propyl]quinoxaline-6-carboxamide] | < 100 | > 99 | – | – | – | 2 | – |
| COc1ccc(F)c(-c2nc3cc(C(=O)NCCCc4ncc[nH]4)ccc3nc2-c2ccc(F)cc2)c1 [Compound I-481, 3-(2-fluoro-5-methoxyphenyl)-2-(4-fluorophenyl)-N-[3-(1H-imidazol-2-yl)propyl]quinoxaline-6-carboxamide] | – | – | – | 98 | < 100 | 2 | – |
| COc1cccc(-c2nc3cc(C(=O)NCCc4cccnc4)ccc3nc2Cl)c1 [Compound I-73, 2-Chloro-3-(3-methoxyphenyl)-N-[2-(pyridin-3-yl)ethyl]quinoxaline-6-carboxamide] | 1000 to 2000 | 13 | – | – | – | – | > 99 |
| O=C(NCCCc1cncnc1)c1ccc2nc(N3CCCCC3)c(-c3ccc(F)cc3)nc2c1 [Compound I-138, 3-(4-fluorophenyl)-2-(piperidin-1-yl)-N-[3-(pyrimidin-5-yl)propyl]quinoxaline-6-carboxamide] | 100 to 500 | 86 | – | – | – | > 99 | – |
| O=C(NCCCn1ccnc1)c1ccc2nc(-c3ccccc3)c(N3CCCC(O)C3)nc2c1 (stereo not drawn) [Compound I-87, 3-(3-hydroxypiperidin-1-yl)-N-[3-(1H-imidazol-1-yl)propyl]-2-phenylquinoxaline-6-carboxamide] | 1000 to 2000 | 39 | -7 | – | – | – | – |
| O=C(NCCCc1ncc[nH]1)c1ccc2nc(-c3ccc(F)cc3)c(-c3ccc(F)cc3F)nc2c1 [Compound I-373, 3-(2,4-difluorophenyl)-2-(4-fluorophenyl)-N-[3-(1H-imidazol-2-yl)propyl]quinoxaline-6-carboxamide] | 100 to 500 | 84 | – | – | – | 2 | – |
| O=C(NCCCc1ncc[nH]1)c1ccc2nc(Cl)c(-c3ccc(Cl)cc3)nc2c1 [Compound I-50, 2-chloro-3-(4-chlorophenyl)-N-[3-(1H-imidazol-2-yl)propyl]quinoxaline-6-carboxamide] | < 100 | 87 | – | – | – | 96 | – |
| CS(=O)(=O)c1cccc(-c2nc3cc(C(=O)NCCCc4ncc[nH]4)ccc3nc2-c2ccc(F)cc2)c1 [Compound I-384, 2-(4-fluorophenyl)-N-[3-(1H-imidazol-2-yl)propyl]-3-[3-(methylsulfonyl)phenyl]quinoxaline-6-carboxamide] | 100 to 500 | 84 | – | – | – | 2 | – |
| N#Cc1cccc(-c2nc3ccc(C(=O)NCCCn4ccnc4)cc3nc2-c2ccccc2)c1 [Compound I-219, 2-(3-cyanophenyl)-N-[3-(1H-imidazol-1-yl)propyl]-3-phenylquinoxaline-6-carboxamide] | 100 to 500 | 74 | -7 | – | – | – | – |
| CCOc1cc(-c2nc3cc(C(=O)NCCCc4ncc[nH]4)ccc3nc2-c2ccc(F)cc2)c(F)cn1 [Compound I-517, 3-(2-ethoxy-5-fluoropyridin-4-yl)-2-(4-fluorophenyl)-N-[3-(1H-imidazol-2-yl)propyl]quinoxaline-6-carboxamide] | – | – | – | 76 | 100 to 500 | 1 | – |
| O=C(NCCCc1ncc[nH]1)c1ccc2nc(OC3CCOCC3)c(-c3ccc(Cl)cc3)nc2c1 [Compound I-111, 3-(4-chlorophenyl)-N-[3-(1H-imidazol-2-yl)propyl]-2-(tetrahydro-2H-pyran-4-yloxy)quinoxaline-6-carboxamide] | < 100 | 99 | – | – | – | 2 | – |
| O=C(NCCCc1ncc[nH]1)c1ccc2nc(N3CCCCC3)c(-c3ccc(F)cc3)nc2c1 [Compound I-232, 3-(4-fluorophenyl)-N-[3-(1H-imidazol-2-yl)propyl]-2-(piperidin-1-yl)quinoxaline-6-carboxamide] | < 100 | > 99 | – | – | – | 2 | – |
| O=C(NCCCn1ccnc1)c1ccc2nc(-c3ccncc3)c(-c3ccccc3)nc2c1 [Compound I-5, N-[3-(1H-imidazol-1-yl)propyl]-3-phenyl-2-(pyridin-4-yl)quinoxaline-6-carboxamide] | 500 to 1000 | 53 | -7 | – | – | – | – |
| Cn1ccc(COc2nc3ccc(C(=O)NCCCc4ncc[nH]4)cc3nc2-c2ccc(F)cc2)n1 [Compound I-460, 3-(4-fluorophenyl)-N-[3-(1H-imidazol-2-yl)propyl]-2-[(1-methyl-1H-pyrazol-3-yl)methoxy]quinoxaline-6-carboxamide] | – | – | – | 99 | < 100 | 2 | – |
| O=C(NCCCn1ccnc1)c1ccc2nc(-c3ccc(F)cc3)c(-c3ccc(F)cc3)nc2c1 [Compound I-19, 2,3-bis(4-fluorophenyl)-N-[3-(1H-imidazol-1-yl)propyl]quinoxaline-6-carboxamide] | 100 to 500 | 82 | -1 | – | – | – | – |
